“And” between values parts separate entries of the source, which are not always exact repeats. Equal values may be shown once.
Assays:
oral lavage [1] = experiment: Formation of formazan dyes: oral lavage and diaphorase, not malate (TABLE 11); format: biochemical, human
oral lavage [2] = experiment: Formation of formazan dyes: oral lavage, malate and diaphorase (TABLE 12); format: biochemical, human
[3] = Formation of formazan dyes: control buffer, malate and 1-Methoxy PMS (TABLE 22); format: biochemical
diaphorase [4] = experiment: Formation of formazan dyes: NADH, diaphorase and malate (TABLE 8); format: biochemical, Clostridium kluyveri
[5] = Formation of formazan dyes: control buffer and 1-Methoxy PMS, absence of malate (TABLE 21); format: biochemical
Malate dehydrogenase = molecular target: T1, Malate dehydrogenase (Sus scrofa, UniProt P00346); experiment: Formation of formazan dyes: Malate dehydrogenase and 1-Methoxy PMS, absence of malate (TABLE 17); format: biochemical, pig heart; set-up: L-malate dehydrogenase (pig heart); purchased Sigma-Aldrich 10127248001 / 10127914001
T1 sequence (P00346 25-338): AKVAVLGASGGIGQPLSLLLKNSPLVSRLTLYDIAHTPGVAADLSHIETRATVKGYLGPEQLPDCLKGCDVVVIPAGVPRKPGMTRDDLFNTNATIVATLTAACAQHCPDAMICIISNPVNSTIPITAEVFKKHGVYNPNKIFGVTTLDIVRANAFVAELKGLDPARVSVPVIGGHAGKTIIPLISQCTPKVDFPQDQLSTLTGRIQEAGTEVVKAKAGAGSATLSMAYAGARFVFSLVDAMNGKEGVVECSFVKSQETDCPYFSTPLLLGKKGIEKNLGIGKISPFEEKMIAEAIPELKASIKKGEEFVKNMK

[6] = Formation of formazan dyes: NADH and 1-methoxy PMS, absence of malate (TABLE 15); format: biochemical
diaphorase [7] = experiment: Formation of formazan dyes: NADH and diaphorase, absence of malate (TABLE 7); format: biochemical, Clostridium kluyveri
[8] = system: Malate dehydrogenase and diaphorase; experiment: Formation of formazan dyes: Malate dehydrogenase and diaphorase, absence of malate (TABLE 9); format: biochemical, pig heart
oral lavage [9] = experiment: Formation of formazan dyes: oral lavage and 1-Methoxy PMS, absence of malate (TABLE 19); format: biochemical, human
oral lavage [10] = experiment: Formation of formazan dyes: oral lavage, malate and 1-Methoxy PMS (TABLE 20); format: biochemical, human
[11] = system: Malate dehydrogenase and diaphorase; experiment: Formation of formazan dyes: Malate dehydrogenase, diaphorase and malate (TABLE 10); format: biochemical, pig heart

## COc1cc(-c2ccc(-n3nc(-c4ccccc4)n[n+]3-c3ccc([N+](=O)[O-])cc3)c(OC)c2)ccc1-n1nc(-c2ccccc2)n[n+]1-c1ccc([N+](=O)[O-])cc1 [Nitro-TB, 3,3′-[3,3′-Dimethoxy-(1,1′-biphenyl)-4,4′-diyl]-bis[2-(4-nitrophenyl)-5-phenyl-2H-tetrazolium chloride]
Oral lavage [1]
  Formation of formazan dyes, absorbance, Means 0 h: 0.56
  Formation of formazan dyes, absorbance, Means 1 h: 0.79
  Formation of formazan dyes, absorbance, Means 2 h: 0.85
  Formation of formazan dyes, absorbance, Means 3 h: 0.81
  Formation of formazan dyes, absorbance, Means 4 h: 0.88
  Formation of formazan dyes, absorbance, Means 6 h: 0.87
  Formation of formazan dyes, absorbance, Means 8 h: 0.88
  Formation of formazan dyes, absorbance, Means 10 h: 0.86
  Formation of formazan dyes, absorbance, Means 12 h: 0.87
  reduction to formazan dyes by pooled oral lavage: changed to formazan dyes in a significant amount
Oral lavage [2]
  Formation of formazan dyes, absorbance, Means 0 h: 0.52
  Formation of formazan dyes, absorbance, Means 1 h: 0.75
  Formation of formazan dyes, absorbance, Means 2 h: 0.80
  Formation of formazan dyes, absorbance, Means 3 h: 0.75
  Formation of formazan dyes, absorbance, Means 4 h: 0.88
  Formation of formazan dyes, absorbance, Means 6 h: 1.00
  Formation of formazan dyes, absorbance, Means 8 h: 1.09
  Formation of formazan dyes, absorbance, Means 10 h: 1.20
  Formation of formazan dyes, absorbance, Means 12 h: 1.30
[3]
  Means absorbance 0 h: 0.16
  Means absorbance 1 h: 0.16
  Means absorbance 2 h: 0.17
  Means absorbance 3 h: 0.19
  Means absorbance 4 h: 0.19
  Means absorbance 6 h: 0.24
  Means absorbance 8 h: 0.29
  Means absorbance 10 h: 0.18
  Means absorbance 12 h: 0.23
Diaphorase [4]
  Formation of formazan dyes, absorbance, Means 0 h: 1.03
  Formation of formazan dyes, absorbance, Means 1 h: 1.15
  Formation of formazan dyes, absorbance, Means 2 h: 1.16
  Formation of formazan dyes, absorbance, Means 3 h: 1.17
  Formation of formazan dyes, absorbance, Means 4 h: 1.22
  Formation of formazan dyes, absorbance, Means 6 h: 1.27
  Formation of formazan dyes, absorbance, Means 8 h: 1.33
  Formation of formazan dyes, absorbance, Means 10 h: 1.37
  Formation of formazan dyes, absorbance, Means 12 h: 1.42
[5]
  Absorbance, formation of formazan dyes (Means): 0.33 and 0.41 and 0.42 and 0.44 and 0.39 and 0.45 and 0.43
Malate dehydrogenase
  Absorbance, formation of formazan dyes (Means): 0.31 and 0.40 and 0.39 and 0.35 and 0.36 and 0.32 and 0.41
[6]
  formation of formazan dyes / precipitates with 1-methoxy PMS and NADH: formed precipitates
Diaphorase [7]
  Formation of formazan dyes, absorbance, Means 0 h: 1.49
  Formation of formazan dyes, absorbance, Means 1 h: 1.71
  Formation of formazan dyes, absorbance, Means 2 h: 1.73
  Formation of formazan dyes, absorbance, Means 3 h: 1.71
  Formation of formazan dyes, absorbance, Means 4 h: 1.74
  Formation of formazan dyes, absorbance, Means 6 h: 1.86
  Formation of formazan dyes, absorbance, Means 8 h: 1.83
  Formation of formazan dyes, absorbance, Means 10 h: 1.85
  Formation of formazan dyes, absorbance, Means 12 h: 1.82
[8]
  Formation of formazan dyes, absorbance, Means 0 h: 0.15
  Formation of formazan dyes, absorbance, Means 1 h: 0.20
  Formation of formazan dyes, absorbance, Means 2 h: 0.23
  Formation of formazan dyes, absorbance, Means 3 h: 0.25
  Formation of formazan dyes, absorbance, Means 4 h: 0.36
  Formation of formazan dyes, absorbance, Means 6 h: 0.39
  Formation of formazan dyes, absorbance, Means 8 h: 0.40
  Formation of formazan dyes, absorbance, Means 10 h: 0.41
  Formation of formazan dyes, absorbance, Means 12 h: 0.42
  reduction of tetrazolium dye in the absence of substrate malate: remained largely in oxidized forms
Oral lavage [9]
  Absorbance, formation of formazan dyes (Means): 0.52 and 0.58 and 0.61 and 0.63 and 0.60 and 0.68 and 0.73 and 0.82
Oral lavage [10]
  Absorbance, formation of formazan dyes (Means): 0.35 and 0.37 and 0.40 and 0.43 and 0.29 and 0.30 and 0.31
[11]
  Formation of formazan dyes, absorbance, Means 0 h: 0.56
  Formation of formazan dyes, absorbance, Means 1 h: 0.88
  Formation of formazan dyes, absorbance, Means 2 h: 1.08
  Formation of formazan dyes, absorbance, Means 3 h: 1.23
  Formation of formazan dyes, absorbance, Means 4 h: 1.46
  Formation of formazan dyes, absorbance, Means 6 h: 1.73
  Formation of formazan dyes, absorbance, Means 8 h: 1.95
  Formation of formazan dyes, absorbance, Means 10 h: 2.16
  Formation of formazan dyes, absorbance, Means 12 h: 2.35
  conversion to reduced formazan dyes: converted to reduced formazan dyes in a time-dependent manner
